In US20260159486A1, “BENZO[H]QUINAZOLINE-4-AMINE DERIVATIVES FOR THE TREATMENT OF CANCER” (Redona Therapeutics, Inc., priority 2021, published 2026):

Assays:
MDA-MB-231 cells = assay: MDA-MB-231 proliferation assay; type: cell-based; details: YO-PRO-1 Iodide readout
Procedure, shortened: (§1)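 Cells seeded at 750 per well, treated next day for 72 h at 37 °C with 0.5% final DMSO. Cell number read by YO-PRO-1 fluorescence after lysis, normalized to DMSO (100%) and time-zero cells (0%). GI50 from 4-parameter logistic fit, maximum constrained to 100%.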

CAL-51 cells = assay: CAL-51 proliferation assay; type: cell-based; details: YO-PRO-1 Iodide readout
Procedure, shortened: as §1

recombinant human CLK3 = molecular target: T1, recombinant human CLK3 (Homo sapiens, UniProt P49761); assay: CLK3 kinase assay (LANCE Ultra); type: biochemical; details: CLK3 0.5 nM, ATP 300 μM, 3 hours at 30° C.
T1 construct: purchased Thermo Fisher Scientific PV3826
T1 sequence (P49761 whole entry): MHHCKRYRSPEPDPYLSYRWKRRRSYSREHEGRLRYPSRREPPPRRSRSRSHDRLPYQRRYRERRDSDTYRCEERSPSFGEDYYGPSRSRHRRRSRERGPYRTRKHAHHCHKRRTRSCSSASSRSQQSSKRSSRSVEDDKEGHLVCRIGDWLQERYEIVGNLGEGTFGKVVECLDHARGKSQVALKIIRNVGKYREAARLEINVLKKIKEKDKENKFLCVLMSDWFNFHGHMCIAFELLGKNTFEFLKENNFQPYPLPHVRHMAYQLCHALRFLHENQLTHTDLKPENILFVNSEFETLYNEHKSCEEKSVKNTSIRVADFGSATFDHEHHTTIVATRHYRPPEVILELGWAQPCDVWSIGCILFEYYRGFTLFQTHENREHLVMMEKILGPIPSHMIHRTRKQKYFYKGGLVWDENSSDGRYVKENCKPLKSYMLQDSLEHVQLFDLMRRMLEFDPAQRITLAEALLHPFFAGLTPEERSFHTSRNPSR
Procedure, shortened: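 Recombinant human CLK3 (0.5 nM) with ULight-CREBtide (50 nM) and 300 μM ATP, 3 h at 30 °C in kinase buffer; EDTA stop, then Eu-anti-phospho-CREB antibody (2 nM, 1 h RT), TR-FRET read at 665/620 nm. Inhibition normalized to DMSO and no-ATP wells; IC50 from 4-parameter fit, ten 1:3 concentrations in duplicate.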

| Compound | GI50 (MDA-MB-231 cells; Homo sapiens, MDA-MB-231, 72 h) | GI50 (CAL-51 cells; Homo sapiens, CAL-51, 72 h) | IC50 (recombinant human CLK3) | GI50 (MDA-MB-231 cells; 72 hours) | GI50 (CAL-51 cells; 72 hours) |
| --- | --- | --- | --- | --- | --- |
| CNC(=O)CN(C)c1c(O[C@H]2CC[C@@H](N)CC2)ccc2c1CC(C)(C)c1c(N)ncnc1-2 [Example 26, 2-[[4-amino-8-(cis-4-aminocyclohexoxy)-5,5-dimethyl-6H-benzo[h]quinazolin-7-yl]-methyl-amino]-N-methyl-acetamide] | > 2000 nM | > 2000 nM | 101 to 1000 nM |  |  |
| CC1(C)Cc2c(ccc(O[C@H]3CC[C@H](N)CC3)c2SCCC#N)-c2ncnc(N)c21 [Example 108, 3-[[4-amino-8-(trans-4-aminocyclohexoxy)-5,5-dimethyl-6H-benzo[h]quinazolin-7-yl]sulfanyl]propanenitrile] | 100 to 2000 nM | < 100 nM | < 30 nM |  |  |
| CC1(C)Cc2c(ccc(O[C@H]3CC[C@H](N)CC3)c2N2CCC(C(N)=O)C2)-c2ncnc(N)c21 (stereo partly drawn) [Example 77, 1-[4-amino-8-(trans-4-aminocyclohexoxy)-5,5-dimethyl-6H-benzo[h]quinazolin-7-yl]pyrrolidine-3-carboxamide] | > 2000 nM | 100 to 2000 nM | < 30 nM |  |  |
| CC1(C)Cc2c(ccc(Br)c2NC[C@@H]2CNC(=O)O2)-c2ncnc(N)c21 [Example 121, (5R)-5-[[(4-amino-8-bromo-5,5-dimethyl-6H-benzo[h]quinazolin-7-yl)amino]methyl]oxazolidin-2-one] | < 100 nM | < 100 nM | < 30 nM |  |  |
| CN(CCC#N)c1cccc2c1CC(C)(C)c1c(N)ncnc1-2 [Example 109, 3-[(4-amino-5,5-dimethyl-6H-benzo[h]quinazolin-7-yl)-methyl-amino]propanenitrile] | 100 to 2000 nM | < 100 nM | 30 to 100 nM |  |  |
| CCCN(CCO)c1c(O[C@H]2CC[C@@H](N)CC2)ccc2c1CC(C)(C)c1c(N)ncnc1-2 [Example 23, 2-[[4-amino-8-(cis-4-aminocyclohexoxy)-5,5-dimethyl-6H-benzo[h]quinazolin-7-yl]-propyl-amino]ethanol] | 100 to 2000 nM | 100 to 2000 nM | < 30 nM |  |  |
| CN(CCC#N)c1c(O[C@H]2CC[C@H](N(C)C)CC2)ccc2c1CC(C)(C)c1c(N)ncnc1-2 [Example 96] | < 100 nM | < 100 nM | < 30 nM |  |  |
| COC1CCN(c2c(O[C@H]3CC[C@H](N)CC3)ccc3c2CC(C)(C)c2c(N)ncnc2-3)C1 (single isomer, unassigned) [Example 63, 8-(trans-4-aminocyclohexoxy)-7-(3-methoxypyrrolidin-1-yl)-5,5-dimethyl-6H-benzo[h]quinazolin-4-amine] | 100 to 2000 nM | 100 to 2000 nM | 30 to 100 nM |  |  |
| CC1(C)Cc2c(ccc(O[C@H]3CC[C@H](N)CC3)c2N2CCC(C#N)C2)-c2ncnc(N)c21 (single isomer, unassigned) [Example 50, 1-[4-amino-8-(trans-4-aminocyclohexoxy)-5,5-dimethyl-6H-benzo[h]quinazolin-7-yl]pyrrolidine-3-carbonitrile] |  |  | < 30 nM | < 100 nM | < 100 nM |
| Nc1ncnc2c1C1(CCCC1)Cc1c-2ccc(O[C@H]2CC[C@@H](N)CC2)c1NCCO [Example 70, 2-[[4-amino-8-(cis-4-aminocyclohexoxy)spiro[6H-benzo[h]quinazoline-5,1′-cyclopentane]-7-yl]amino]ethanol] | 100 to 2000 nM | 100 to 2000 nM | < 30 nM |  |  |
| COCCN(C)c1c(O[C@H]2CC[C@H](N)CC2)ccc2c1CC1(CCCC1)c1c(N)ncnc1-2 [Example 72, 8-(trans-4-aminocyclohexoxy)-N7-(2-methoxyethyl)-N7-methyl-spiro[6H-benzo[h]quinazoline-5,1′-cyclopentane]-4,7-diamine] | 100 to 2000 nM | 100 to 2000 nM | 101 to 1000 nM |  |  |
| CN(CCO)c1c(O[C@H]2CC[C@@H](N)CC2)ccc2c1CC(C)(C)c1c(N)ncnc1-2 [Example 24, 2-[[4-amino-8-(cis-4-aminocyclohexoxy)-5,5-dimethyl-6H-benzo[h]quinazolin-7-yl]-methyl-amino]ethanol] | < 100 nM | < 100 nM | < 30 nM |  |  |
| CC(CCC#N)c1c(O[C@H]2CC[C@H](N)CC2)ccc2c1CC(C)(C)c1c(N)ncnc1-2 (stereo partly drawn) [Example 97, 4-[4-amino-8-(trans-4-aminocyclohexoxy)-5,5-dimethyl-6H-benzo[h]quinazolin-7-yl]pentanenitrile] | < 100 nM | < 100 nM | < 30 nM |  |  |
| COc1ccc2c(c1N1CC(O)C1)CC(C)(C)c1c(N)ncnc1-2 [Example 25, 1-(4-amino-8-methoxy-5,5-dimethyl-6H-benzo[h]quinazolin-7-yl)azetidin-3-ol] | 100 to 2000 nM | 100 to 2000 nM | 101 to 1000 nM |  |  |
| CC1(C)Cc2c(ccc3c2N(CCC#N)CCO3)-c2ncnc(N)c21 [Example 117, 3-(7-amino-6,6-dimethyl-3,5-dihydro-2H-quinazolino[7,8-f][1,4]benzoxazin-4-yl)propanenitrile] | 100 to 2000 nM | < 100 nM | 30 to 100 nM |  |  |
| CN1CCOc2ccc3c(c21)CC(C)(C)c1c(N)ncnc1-3 [Example 4, 4,6,6-trimethyl-3,5-dihydro-2H-quinazolino[7,8-f][1,4]benzoxazin-7-amine] | 100 to 2000 nM | 100 to 2000 nM | 30 to 100 nM |  |  |
| CN(CCC#N)c1c(OC2CCNCC2)ccc2c1CC(C)(C)c1c(N)ncnc1-2 [Example 93, 3-[[4-amino-5,5-dimethyl-8-(4-piperidyloxy)-6H-benzo[h]quinazolin-7-yl]-methyl-amino]propanenitrile] | < 100 nM | < 100 nM | < 30 nM |  |  |
| CN(CCNS(C)(=O)=O)c1c(O[C@H]2CC[C@H](N)CC2)ccc2c1CC(C)(C)c1c(N)ncnc1-2 [Example 39, N-[2-[[4-amino-8-(trans-4-aminocyclohexoxy)-5,5-dimethyl-6H-benzo[h]quinazolin-7-yl]-methyl-amino]ethyl]methanesulfonamide] | > 2000 nM | 100 to 2000 nM | 101 to 1000 nM |  |  |
| CC1(C)Cc2c(ccc(O[C@H]3CC[C@H](N4CCOCC4)CC3)c2NC[C@@H]2CNC(=O)O2)-c2ncnc(N)c21 [Example 131, (5R)-5-[[[4-amino-5,5-dimethyl-8-(trans-4-morpholinocyclohexoxy)-6H-benzo[h]quinazolin-7-yl]amino]methyl]oxazolidin-2-one] | 100 to 2000 nM | 100 to 2000 nM | < 30 nM |  |  |
| CC1(C)Cc2c(ccc(O[C@H]3CC[C@H](N)CC3)c2NC2CC2)-c2ncnc(N)c21 [Example 84, 8-(trans-4-aminocyclohexoxy)-N7-cyclopropyl-5,5-dimethyl-6H-benzo[h]quinazoline-4,7-diamine] | 100 to 2000 nM | < 100 nM | 30 to 100 nM |  |  |
| CC(C)CN(C)c1c(O[C@H]2CC[C@H](N)CC2)ccc2c1CC(C)(C)c1c(N)ncnc1-2 [Example 106, 8-(trans-4-aminocyclohexoxy)-N7-isobutyl-N7,5,5-trimethyl-6H-benzo[h]quinazoline-4,7-diamine] | 100 to 2000 nM | 100 to 2000 nM | 30 to 100 nM |  |  |
| COc1ccc2c(c1N)CC(C)(C)c1c(N)ncnc1-2 [Example 2, 8-methoxy-5,5-dimethyl-6H-benzo[h]quinazoline-4,7-diamine] | 100 to 2000 nM | 100 to 2000 nM | 30 to 100 nM |  |  |
